Experimental data as given in PubChem BioAssay (NCI).
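Method: 48-hour compound exposure of cells in 96-well plates, five concentrations, linear interpolation of endpoints. At the GI50, growth is halved. TGI marks complete inhibition of growth.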

Key:
Test in all cases: NCI-60 cell line screen, 48 h
HOP-92 NSCLC = tested on: HOP-92 NSCLC
UACC-257 melanoma = tested on: UACC-257 melanoma
BT-549 breast = tested on: BT-549 breast
NCI-H23 lung = tested on: NCI-H23 lung
NCI-H226 lung = tested on: NCI-H226 lung
OVCAR-4 ovarian = tested on: OVCAR-4 ovarian
UO-31 renal = tested on: UO-31 renal
A498 renal = tested on: A498 renal
PC-3 prostate = tested on: PC-3 prostate
NCI/ADR-RES ovarian = tested on: NCI/ADR-RES ovarian
DU-145 prostate = tested on: DU-145 prostate
ACHN renal = tested on: ACHN renal
HOP-62 NSCLC = tested on: HOP-62 NSCLC
KM12 colon = tested on: KM12 colon
786-0 renal = tested on: 786-0 renal
UACC-62 melanoma = tested on: UACC-62 melanoma
OVCAR-5 ovarian = tested on: OVCAR-5 ovarian
SW-620 colon = tested on: SW-620 colon
MALME-3M melanoma = tested on: MALME-3M melanoma
HT29 colon = tested on: HT29 colon
MDA-MB-231 breast = tested on: MDA-MB-231 breast
A549 NSCLC = tested on: A549 NSCLC
SK-MEL-28 melanoma = tested on: SK-MEL-28 melanoma
SK-MEL-5 melanoma = tested on: SK-MEL-5 melanoma
MDA-MB-435 = tested on: MDA-MB-435
TK-10 renal = tested on: TK-10 renal
OVCAR-3 ovarian = tested on: OVCAR-3 ovarian
SK-OV-3 ovarian = tested on: SK-OV-3 ovarian

Work on `CCC1NC(=O)C(NC(=O)c2ncccc2O)C(C)OC(=O)C(c2ccccc2)NC(=O)C2CC(=O)CCN2C(=O)C(Cc2ccccc2)N(C)C(=O)C2CCCN2C1=O` (stereo not given) yielded a TGI (HOP-92 NSCLC) greater than 100000 nM, a TGI (UACC-257 melanoma) greater than 100000 nM and a TGI (BT-549 breast) greater than 100000 nM. The TGI (NCI-H23 lung) was greater than 100000 nM and the TGI (NCI-H226 lung) was greater than 100000 nM.

`COCCc1n(Cc2ccc3ccccc3c2)c2ccccc2[n+]1Cc1ccc2ccccc2c1` was tested, and the GI50 (OVCAR-4 ovarian) was 329 nM, the TGI (OVCAR-4 ovarian) was 1340 nM and the GI50 (HOP-92 NSCLC) was 214 nM. For the same compound, the TGI (HOP-92 NSCLC) was 1130 nM, the GI50 (UO-31 renal) was 1480 nM and the TGI (UO-31 renal) was 2880 nM. For the same compound, the GI50 (A498 renal) was 1540 nM, the TGI (A498 renal) was 2980 nM and the GI50 (UACC-257 melanoma) was 456 nM. For the same compound, the TGI (UACC-257 melanoma) was 1770 nM, the GI50 (PC-3 prostate) was 412 nM and the TGI (PC-3 prostate) was 1620 nM. For the same compound, the GI50 (NCI/ADR-RES ovarian) was 11200 nM, the TGI (NCI/ADR-RES ovarian) was 53000 nM and the GI50 (DU-145 prostate) was 1060 nM. For the same compound, the TGI (DU-145 prostate) was 2330 nM, the GI50 (ACHN renal) was 1610 nM and the TGI (ACHN renal) was 2990 nM. It also gave a GI50 (HOP-62 NSCLC) of 1260 nM, a TGI (HOP-62 NSCLC) of 2730 nM and a GI50 (KM12 colon) of 415 nM. For the same compound, the TGI (KM12 colon) was 1640 nM, the GI50 (786-0 renal) was 1280 nM and the TGI (786-0 renal) was 2760 nM. The GI50 (UACC-62 melanoma) was 384 nM, the TGI (UACC-62 melanoma) was 1520 nM and the GI50 (OVCAR-5 ovarian) was 1110 nM. It also gave a TGI (OVCAR-5 ovarian) of 2470 nM, a GI50 (SW-620 colon) of 1110 nM and a TGI (SW-620 colon) of 2590 nM. For the same compound, the GI50 (MALME-3M melanoma) was 443 nM, the TGI (MALME-3M melanoma) was 1720 nM and the GI50 (HT29 colon) was 379 nM. It also gave a TGI (HT29 colon) of 1510 nM, a GI50 (MDA-MB-231 breast) of 536 nM and a TGI (MDA-MB-231 breast) of 1940 nM. The GI50 (A549 NSCLC) was 1460 nM, the TGI (A549 NSCLC) was 3030 nM and the GI50 (SK-MEL-28 melanoma) was 567 nM. The TGI (SK-MEL-28 melanoma) was 1970 nM, the GI50 (SK-MEL-5 melanoma) was 371 nM and the TGI (SK-MEL-5 melanoma) was 1360 nM. For the same compound, the GI50 (MDA-MB-435) was 410 nM, the TGI (MDA-MB-435) was 1560 nM and the GI50 (TK-10 renal) was 1260 nM. It also gave a TGI (TK-10 renal) of 2650 nM, a GI50 (OVCAR-3 ovarian) of 451 nM and a TGI (OVCAR-3 ovarian) of 1720 nM. It also gave a GI50 (SK-OV-3 ovarian) of 1280 nM and a TGI (SK-OV-3 ovarian) of 2590 nM.
